Laboratory results published in US12503452B2 (Curza Global, LLC, priority 2019, dated 2025).

Tests used:
[1] = system: E. coli S30 extract (bacterial protein synthesis); test: E. coli S30 extract coupled transcription-translation luciferase assay (inhibition of bacterial protein synthesis); assay type: biochemical; conditions: class by IC50 or % inhibition @ 1 μM, read-out: S30 IC50 (μM/% inhib.)
Summary of the method: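 Cell-free coupled transcription-translation in E. coli S30 circular-DNA extract, with pBESTluc plasmid as template and complete amino acid mix. Eight 2-fold compound dilutions were incubated with the extract 1 h at 37 °C, chilled, then luciferase luminescence was read. % inhibition was taken relative to no-inhibitor wells; no-DNA wells gave background.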

[2] = biological target: Rabbit Reticulocyte Lysate (eukaryotic protein synthesis); test: Rabbit reticulocyte lysate luciferase assay (inhibition of eukaryotic protein synthesis); assay type: biochemical; conditions: class by IC50 or % inhibition @ 1 μM, read-out: Rabbit reticulocyte IC50 (μM/% inhib.)
Summary of the method: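 Nuclease-treated rabbit reticulocyte lysate translating luciferase control RNA, with complete amino acids, was incubated at 30° C. for 90 minutes with 2-fold serial compound dilutions. Luminescence was measured after adding luciferase reagent. % inhibition was relative to water controls, with no-RNA wells as background.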

A. baumannii (Ab) = test: Broth microdilution minimum inhibitory concentration (MIC); assay type: cell-based; conditions: A. baumannii, growth medium with sodium bicarbonate; for MIC: Acinetobacter baumannii, read-out: Ab + bicarb MIC
Summary of the method: (§1)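 CLSI broth microdilution (M07-A9, slightly modified) in CAMHB, optionally with 6.25 or 25 mM sodium bicarbonate or 0–50% heat-inactivated human serum. Two-fold serial dilutions (8 concentrations, triplicate) were inoculated at 5×10^4 CFU/well from 0.5 McFarland cultures grown at 35±2 °C.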

E. coli (Ec) = test: as above; assay type: cell-based; conditions: E. coli, growth medium with sodium bicarbonate; for MIC: Escherichia coli, read-out: E. coli + bicarb MIC
Summary of the method: as §1

E. faecalis (Ef) = test: as above; assay type: cell-based; conditions: E. faecalis, growth medium with sodium bicarbonate; for MIC: Enterococcus faecalis, read-out: Ef + bicarb MIC
Summary of the method: as §1

P. aeruginosa (Pa) = test: as above; assay type: cell-based; conditions: P. aeruginosa, growth medium with sodium bicarbonate; for MIC: Pseudomonas aeruginosa, read-out: Pa MIC + bicarb
Summary of the method: as §1

S. aureus (Sa) = test: as above; assay type: cell-based; conditions: S. aureus, growth medium with sodium bicarbonate; for MIC: Staphylococcus aureus, read-out: Sa + bicarb MIC
Summary of the method: as §1

Row | Compound | IC50 [1] [µM] | IC50 [2] [µM] | MIC (A. baumannii (Ab)) [µg/mL] | MIC (E. coli (Ec)) [µg/mL] | MIC (E. faecalis (Ef)) [µg/mL] | MIC (P. aeruginosa (Pa)) [µg/mL] | MIC (S. aureus (Sa)) [µg/mL] | Ef + bicarb MIC (E. faecalis (Ef)) | Pa MIC + bicarb (P. aeruginosa (Pa)) | Ab + bicarb MIC (A. baumannii (Ab)) | E. coli + bicarb MIC (E. coli (Ec)) | Sa + bicarb MIC (S. aureus (Sa))
1 | CC(C)(N)C(=O)N1CCN(C(=O)Nc2ccn(-c3ccc(CN4CCC(N)C(C)(C)C4)cc3)c(=O)n2)CC1 (centres unmarked) [Compound 254] | 0.5 to 1 | > 1 | < 8 | < 8 | < 8 | > 32 | < 8 |  |  |  |  | 
2 | CC(C)(N)C(=O)N1CCN(C(=O)Nc2ccn(-c3ccc(CN4CC[C@@H](N)[C@H](O)C4)cc3)c(=O)n2)CC1 [Compound 268] | > 1 | > 1 | > 32 | 8 to 32 | > 32 | > 32 | 8 to 32 |  |  |  |  | 
3 | CC(C)(N)C(=O)N1CCN(C(=O)Nc2ccn(-c3ccc(CC(=O)N4CCC(N)CC4)cc3)c(=O)n2)CC1 [Compound 269] | > 1 | > 1 | > 32 | 8 to 32 | > 32 | > 32 | > 32 |  |  |  |  | 
4 | Cc1cc(-n2ccc(NC(=O)N3CCN(C(=O)C(C)(C)N)CC3)nc2=O)ccc1CN(CC1CC1)C1CCC(N)CC1 (centres unmarked) [Compound 270] | < 0.5 | > 1 | < 8 | < 8 | < 8 | 8 to 32 | < 8 |  |  |  |  | 
5 | CC(C)(N)C(=O)N1CCN(C(=O)Nc2ccn(-c3ccc(CNC4CCC(N)CC4)c(Cl)c3)c(=O)n2)CC1 (centres unmarked) [Compound 271] | < 0.5 | > 1 | > 32 | < 8 | < 8 | > 32 | < 8 |  |  |  |  | 
6 | CN(Cc1ccc(-n2ccc(NC(=O)N3CCN(C(=O)C(C)(C)N)CC3)nc2=O)cc1Cl)C1CCC(N)CC1 (centres unmarked) [Compound 272] | < 0.5 | > 1 | < 8 | < 8 | < 8 | 8 to 32 | < 8 |  |  |  |  | 
7 | CCN(Cc1ccc(-n2ccc(NC(=O)N3CCN(C(=O)C(C)(C)N)CC3)nc2=O)cc1Cl)C1CCC(N)CC1 (centres unmarked) [Compound 273] | < 0.5 | > 1 | < 8 | < 8 | < 8 | 8 to 32 | < 8 |  |  |  |  | 
8 | CCN(Cc1ccc(-n2ccc(NC(=O)N3CCN(C(=O)C(C)(C)N)[C@H](C)C3)nc2=O)cc1)C1CCC(N)CC1 (some centres unmarked) [Compound 274] | < 0.5 | > 1 | < 8 | < 8 | < 8 | 8 to 32 | < 8 |  |  |  |  | 
9 | CCN(Cc1ccc(-n2ccc(NC(=O)N3CCN(C(=O)C(C)(C)N)C[C@H]3C)nc2=O)cc1)C1CCC(N)CC1 (some centres unmarked) [Compound 275] | < 0.5 | > 1 | < 8 | < 8 | < 8 | 8 to 32 | < 8 |  |  |  |  | 
10 | CCN(Cc1ccc(-n2ccc(NC(=O)N3CCN(C(=O)C(C)(C)N)CC3)nc2=O)cc1C(F)(F)F)C1CCC(N)CC1 (centres unmarked) [Compound 276] | 0.5 to 1 | > 1 | > 32 | < 8 | < 8 | > 32 | < 8 |  |  |  |  | 
11 | C[C@](N)(CO)C(=O)N1CCN(C(=O)Nc2ccn(-c3ccc(CN(CC4CC4)C4CCC(N)CC4)cc3)c(=O)n2)CC1 (some centres unmarked) [Compound 277] | < 0.5 | > 1 | > 32 | < 8 | < 8 | > 32 | < 8 |  |  |  |  | 
12 | CN(Cc1ccc(-n2ccc(NC(=O)N3CCN(C(=O)C(C)(C)N)CC3)nc2=O)cc1F)C1CCC(N)CC1 (centres unmarked) [Compound 278] | < 0.5 | > 1 | 8 to 32 | < 8 | < 8 | 8 to 32 | < 8 |  |  |  |  | 
13 | CC(Cc1ccc(-n2ccc(NC(=O)N3CCN(C(=O)C(C)(C)N)CC3)nc2=O)cc1)N(C)C[C@H]1CCC[C@H](N)C1 (some centres unmarked) [Compound 279] | > 1 | > 1 | > 32 | < 8 | 8 to 32 | > 32 | < 8 |  |  |  |  | 
14 | CCN(C[C@H]1CCC[C@H](N)C1)C(C)Cc1ccc(-n2ccc(NC(=O)N3CCN(C(=O)C(C)(C)N)CC3)nc2=O)cc1 (some centres unmarked) [Compound 280] | 0.5 to 1 | > 1 | > 32 | < 8 | < 8 | > 32 | < 8 |  |  |  |  | 
15 | CCN(C(C)Cc1ccc(-n2ccc(NC(=O)N3CCN(C(=O)C(C)(C)N)CC3)nc2=O)cc1)C1CCC(N)CC1 (centres unmarked) [Compound 281] | < 0.5 | > 1 | > 32 | < 8 |  |  | < 8 | +++ (An MIC value (μg/mL) that is less than 8 μg/mL) | ++ (An MIC value (μg/mL) that is 8 μg/mL or greater and less than 32 μg/mL) |  |  | 
16 | CCN(C(C)Cc1ccc(-n2ccc(NC(=O)N3CCN(C(=O)C(C)(C)N)CC3)nc2=O)cc1)C1CCC(N)CC1 (centres unmarked) [Compound 282] | > 1 | > 1 |  |  |  |  |  | + (An MIC value (μg/mL) that is 32 μg/mL or greater) | + (An MIC value (μg/mL) that is 32 μg/mL or greater) | + (An MIC value (μg/mL) that is 32 μg/mL or greater) | +++ (An MIC value (μg/mL) that is less than 8 μg/mL) | +++ (An MIC value (μg/mL) that is less than 8 μg/mL)
17 | Cc1cc(-n2ccc(NC(=O)N3CCN(C(=O)C(C)(C)N)CC3)nc2=O)ccc1CNC1CCC(N)CC1 (centres unmarked) [Compound 283] | < 0.5 | > 1 | > 32 | < 8 | < 8 | > 32 | < 8 |  |  |  |  | 
18 | Cc1cc(-n2ccc(NC(=O)N3CCN(C(=O)C(C)(C)N)CC3)nc2=O)ccc1CN(C)C1CCC(N)CC1 (centres unmarked) [Compound 284] | < 0.5 | > 1 | < 8 | < 8 | < 8 | 8 to 32 | < 8 |  |  |  |  | 
19 | CCN(Cc1ccc(-n2ccc(NC(=O)N3CCN(C(=O)C(C)(C)N)CC3)nc2=O)cc1C)C1CCC(N)CC1 (centres unmarked) [Compound 285] | < 0.5 | > 1 | < 8 | < 8 | < 8 | 8 to 32 | < 8 |  |  |  |  | 
20 | CN(Cc1ccc(-n2ccc(NC(=O)N3CCN(C(=O)[C@@](C)(N)CO)CC3)nc2=O)cc1)C1CCC(N)CC1 (some centres unmarked) [Compound 286] | < 0.5 | > 1 | > 32 | < 8 | < 8 | > 32 | < 8 |  |  |  |  | 
21 | CCN(Cc1ccc(-n2ccc(NC(=O)N3CCN(C(=O)[C@@](C)(N)CO)CC3)nc2=O)cc1)C1CCC(N)CC1 (some centres unmarked) [Compound 287] | < 0.5 | > 1 | > 32 | < 8 | < 8 | 8 to 32 | < 8 |  |  |  |  | 
22 | C[C@](N)(CO)C(=O)N1CCN(C(=O)Nc2ccn(-c3ccc(CNC4CCC(N)CC4)cc3)c(=O)n2)CC1 (some centres unmarked) [Compound 288] | < 0.5 | > 1 | > 32 | < 8 | < 8 | > 32 | < 8 |  |  |  |  | 
23 | NC1CCN(Cc2ccc(-n3ccc(NC(=O)N4CC5(CC(N)C5)C4)nc3=O)cc2)CC1 [Compound 289] | 0.5 to 1 | > 1 | > 32 | < 8 | > 32 | > 32 | < 8 |  |  |  |  | 
